Eleven compounds from US20090023721A1, “Novel Substituted Tetracyclic Tetrahydrofuran, Pyrrolidine and Tetrahydrothiophene Derivatives and Their Use as a Medicament” (priority 2005, published 2009) can be followed below.

Like-named read-outs stand apart in the source and are kept apart here.

The target in data set [1] is T1, NET (Rattus norvegicus, UniProt Q9WTR4).
T1 construct: Cortex from rat brain was collected and homogenised; from tissue; host or cells: rat brain cortex membranes
As to the kind of experiment: In vitro determination of NET reuptake inhibition ([3H]Nixosetine binding, rat brain cortex membranes). The method, then:
Cortex from rat brain was collected and homogenised using an Ultra-Turrax T25 and a Dual homogeniser in ice-cold homogenising buffer containing Tris, NaCl and KCl (50 mM, 120 mM and 5 mM, respectively, pH 7.4) prior to dilution to an appropriate protein concentration optimised for specific and non-specific binding. […] Membrane-bound activity was detected by filtration through a Packard Filtermate harvester onto GF/B Unifilterplates, washed with ice-cold Tris-HCl buffer, containing NaCl and KCl (50 mM, 120 mM and 4 mM; pH 7.4; 6×0.5 ml). Filters were allowed to dry for 24 h before adding scintillation fluid. Scintillation fluid was allowed to saturate filters for 24 h before counting in a Topcount scintillation counter. Percentage specific bound and competition binding curves were calculated using S-Plus software (Insightful).

For data set [2], the target named is T2, human cloned 5-HT2A receptor, expressed in L929 cells (Homo sapiens, UniProt P28223).
T2 construct: expressed in transfected cells; host or cells: L929 cells
T2 sequence (P28223 whole entry): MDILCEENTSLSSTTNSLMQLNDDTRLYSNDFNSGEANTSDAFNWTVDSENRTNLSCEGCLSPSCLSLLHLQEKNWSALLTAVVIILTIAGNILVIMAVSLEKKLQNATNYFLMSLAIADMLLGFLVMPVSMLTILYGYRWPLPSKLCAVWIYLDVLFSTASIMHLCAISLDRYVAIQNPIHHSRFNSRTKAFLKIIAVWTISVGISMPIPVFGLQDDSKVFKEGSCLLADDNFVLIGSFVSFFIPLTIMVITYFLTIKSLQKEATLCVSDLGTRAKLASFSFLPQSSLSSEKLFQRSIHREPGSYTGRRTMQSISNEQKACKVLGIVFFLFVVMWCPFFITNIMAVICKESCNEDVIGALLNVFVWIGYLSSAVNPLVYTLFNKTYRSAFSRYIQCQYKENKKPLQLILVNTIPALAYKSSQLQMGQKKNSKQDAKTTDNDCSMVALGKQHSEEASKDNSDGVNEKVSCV
Put plainly: In vitro radioligand binding affinity for 5-HT2A receptor ([125I]R91150). The method, then:
The interaction of the compounds of Formula (I) with 5-HT2A and 5-HT2C receptors was assessed in in vitro radioligand binding experiments. In general, a low concentration of a radioligand with a high binding affinity for the receptor is incubated with a sample of a tissue preparation enriched in a particular receptor (1 to 5 mg tissue) in a buffered medium (0.2 to 5 ml). During the incubation, the radioligands bind to the receptor. When equilibrium of binding is reached, the receptor bound radioactivity is separated from the non-bound radioactivity, and the receptor bound activity is counted. The interaction of the test compounds with the receptors is assessed in competition binding experiments. Various concentrations of the test compound are added to the incubation mixture containing the tissue preparation and the radioligand. Binding of the radioligand will be inhibited by the test compound in proportion to its binding affinity and its concentration. The affinities of the compounds for the 5-HT2 receptors were measured by means of radioligand binding studies conducted with: (a) human cloned 5-HT2A receptor, expressed in L929 cells using [^125I]R91150 as radioligand and (b) human cloned 5-HT2C receptor, expressed in CHO cells using [^3H]mesulergine as radioligand.

The target in data set [3] is T3, human cloned 5-HT2C receptor, expressed in CHO cells (Homo sapiens, UniProt P28335).
T3 construct: expressed in transfected cells; host or cells: CHO cells
T3 sequence (P28335 33-458): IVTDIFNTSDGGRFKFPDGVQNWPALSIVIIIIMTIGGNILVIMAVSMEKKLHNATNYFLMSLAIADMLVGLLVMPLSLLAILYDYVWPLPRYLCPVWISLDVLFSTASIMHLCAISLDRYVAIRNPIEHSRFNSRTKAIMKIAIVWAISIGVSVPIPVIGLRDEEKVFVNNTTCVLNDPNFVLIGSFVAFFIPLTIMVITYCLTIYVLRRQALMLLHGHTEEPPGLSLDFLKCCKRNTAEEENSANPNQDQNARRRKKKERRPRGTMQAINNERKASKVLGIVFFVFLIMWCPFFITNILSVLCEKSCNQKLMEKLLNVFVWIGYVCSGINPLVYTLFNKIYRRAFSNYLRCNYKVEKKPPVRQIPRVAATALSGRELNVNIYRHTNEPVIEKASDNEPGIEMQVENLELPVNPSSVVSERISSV
As to the kind of experiment: In vitro radioligand binding affinity for 5-HT2C receptor ([3H]mesulergine). As to conditions: human cloned 5-HT2C receptor in CHO cells, [3H]mesulergine; read-out: h-5HT2C (converted). The method, then: The interaction of the compounds of Formula (I) with 5-HT2A and 5-HT2C receptors was assessed in in vitro radioligand binding experiments. […] During the incubation, the radioligands bind to the receptor. When equilibrium of binding is reached, the receptor bound radioactivity is separated from the non-bound radioactivity, and the receptor bound activity is counted. The interaction of the test compounds with the receptors is assessed in competition binding experiments. Various concentrations of the test compound are added to the incubation mixture containing the tissue preparation and the radioligand. Binding of the radioligand will be inhibited by the test compound in proportion to its binding affinity and its concentration.

Data set [4] concerns the target T4, human Dopamine D2L receptor (Homo sapiens, UniProt P14416).
T4 construct: expressed in transfected cells; host or cells: CHO cells (frozen membranes)
Put plainly: In vitro binding affinity for human D2L receptor ([3H]Spiperone). Particulars: human D2L receptor-transfected CHO cell membranes, [3H]Spiperone; read-out: h-D2L (converted). The method, then:
Frozen membranes of human Dopamine D2L receptor-transfected CHO cells were thawed, briefly homogenised using an Ultra-Turrax T25 homogeniser and diluted in Tris-HCl assay buffer containing NaCl, CaCl2, MgCl2, KCl (50, 120, 2, 1, and 5 mM respectively, adjusted to pH 7.7 with HCl) to an appropriate protein concentration optimised for specific and non-specific binding. Radioligand [^3H]Spiperone (NEN, specific activity ˜70 Ci/mmol) was diluted in assay buffer at a concentration of 2 nmol/L. Prepared radioligand (50 μl), along with 50 μl of either the 10% DMSO control, Butaclamol (10-6 mol/l final concentration), or compound of interest, was then incubated (30 min, 37° C.) with 400 μl of the prepared membrane solution. Membrane-bound activity was filtered through a Packard Filtermate harvester onto GF/B Unifilterplates and washed with ice-cold Tris-HCl buffer (50 mM; pH 7.7; 6×0.5 ml). Filters were allowed to dry before adding scintillation fluid and counting in a Topcount scintillation counter. Percentage specific bound and competition binding curves were calculated using S-Plus software (Insightful).

Where [5] appears, read: human cloned 5-HT2A receptor in L929 cells, [125I]R91150, read-out: h-5HT2A (converted).

T4 sequence (P14416 whole entry): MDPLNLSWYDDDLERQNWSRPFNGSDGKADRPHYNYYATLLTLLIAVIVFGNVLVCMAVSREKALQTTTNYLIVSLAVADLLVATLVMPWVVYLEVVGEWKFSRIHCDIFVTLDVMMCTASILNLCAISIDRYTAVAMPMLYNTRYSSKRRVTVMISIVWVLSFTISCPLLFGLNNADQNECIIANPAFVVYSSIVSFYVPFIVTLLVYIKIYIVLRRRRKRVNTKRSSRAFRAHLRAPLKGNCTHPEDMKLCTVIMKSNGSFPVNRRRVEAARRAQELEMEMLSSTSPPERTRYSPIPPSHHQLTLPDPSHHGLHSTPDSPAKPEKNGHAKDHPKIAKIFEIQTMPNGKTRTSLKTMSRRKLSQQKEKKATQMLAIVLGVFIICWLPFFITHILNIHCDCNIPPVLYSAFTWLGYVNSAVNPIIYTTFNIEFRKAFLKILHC
T1 sequence (Q9WTR4 1-597): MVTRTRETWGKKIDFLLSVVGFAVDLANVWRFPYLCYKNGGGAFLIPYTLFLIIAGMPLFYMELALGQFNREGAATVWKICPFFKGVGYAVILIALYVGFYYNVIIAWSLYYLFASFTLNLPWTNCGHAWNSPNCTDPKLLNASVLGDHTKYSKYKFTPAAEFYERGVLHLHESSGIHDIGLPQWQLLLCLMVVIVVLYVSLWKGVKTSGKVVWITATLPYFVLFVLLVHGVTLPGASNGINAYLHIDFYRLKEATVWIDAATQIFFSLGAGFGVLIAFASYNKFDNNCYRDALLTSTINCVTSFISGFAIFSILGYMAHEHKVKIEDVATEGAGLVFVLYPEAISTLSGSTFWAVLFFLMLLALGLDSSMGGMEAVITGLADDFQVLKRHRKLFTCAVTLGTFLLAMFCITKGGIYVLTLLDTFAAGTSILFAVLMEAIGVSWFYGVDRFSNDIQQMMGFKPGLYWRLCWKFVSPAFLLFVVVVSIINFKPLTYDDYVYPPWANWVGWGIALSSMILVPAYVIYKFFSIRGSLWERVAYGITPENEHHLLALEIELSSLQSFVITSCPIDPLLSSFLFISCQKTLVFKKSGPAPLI

`CNC1CO[C@H]2c3cc(F)ccc3Cc3ccccc3[C@H]2C1` (stereo in doubt) [compound 33, (3R,4aR,13bR)-12-fluoro-N-methyl-2,3,4,4a,9,13b-hexahydrodibenzo[3,4:6,7]cyclo-hepta[1,2-b]pyran-3-amine] yielded a melting point of 55 to 56 °C.

Compound `Fc1ccc2c(c1)[C@@H]1[C@H](C[C@@H]3CNC(=S)N31)c1ccccc1C2` [compound 8, (4aS,13bR,14aR)-6-fluoro-1,4a,9,13b,14,14a-hexahydrodibenzo[3 ′,4′:6′,7′]cyclohepta-[1′,2′:4,5]pyrrolo[1,2-c]imidazole-3(2H)-thione] showed a melting point of 150 to 151 °C. Moreover, the “NET Reuptake Inhibition” value in data set [1] was 5.66. Also, the IC50 in data set [2] was 85.1 nM. Moreover, in data set [3], the IC50 is 251 nM. Further, in data set [4], the IC50 is more than 10000 nM.

For `CN(C)C[C@@H]1C[C@@H]2c3ccccc3Cc3ccc(F)cc3[C@H]2[S@@+]1[O-]` [compound 26, [(2S,3aR,12bS)-11-fluoro-1-oxido-3,3a,8,12b-tetrahydro-2H-dibenzo[3,4:6,7]-cyclohepta[1,2-b]thien-2-yl]-N,N-dimethylmethanamine], the IC50 in data set [1], in data set [2] (setting [5]), in data set [3] and in data set [4] was more than 10000 nM throughout.

`O[C@H]1CO[C@H]2c3cc(F)ccc3Cc3ccccc3[C@H]2C1` [compound 29, (3R,4aR,13bR)-12-fluoro-2,3,4,4a,9,13b-hexahydrodibenzo[3,4:6,7]cyclohepta[1,2-b]-pyran-3-ol] returned a melting point of 59 to 61 °C.

In turn, `N[C@@H]1CO[C@H]2c3cc(F)ccc3Cc3ccccc3[C@H]2C1` [compound 30, (3S,4aR,13bR)-12-fluoro-2,3,4,4a,9,13b-hexahydrodibenzo[3,4:6,7]cyclohepta[1,2-b]pyran-3-amine] came in with a melting point of 74 to 76 °C. The IC50 in data set [1] was 302 nM. Also, the IC50 in data set [2] (setting [5]) is 269 nM. Moreover, the IC50 in data set [3] is 145 nM. Also, the IC50 in data set [4] was more than 1000 nM.

On to `O=C1CO[C@H]2c3cc(F)ccc3Cc3ccccc3[C@H]2C1` [compound 31, (4aR,13bR)-12-fluoro-4,4a,9,13b-tetrahydrodibenzo[3,4:6,7]cyclohepta[1,2-b]pyran-3(2H)-one], for which the melting point fell in the range of 146 to 148 °C.

`CN(C)[C@@H]1CO[C@H]2c3cc(F)ccc3Cc3ccccc3[C@H]2C1` [compound 32, (3S,4aR,13bR)-12-fluoro-N,N-dimethyl-2,3,4,4a,9,13b-hexahydrodibenzo[3,4:6,7]-cyclohepta[1,2-b]pyran-3-amine] returned a melting point of 58 to 59 °C. In addition, in data set [1], the IC50 was 19.5 nM. Also, the IC50 in data set [2] (setting [5]) was 676 nM. Also, the IC50 in data set [3] is 132 nM. In addition, in data set [4], the IC50 was more than 1000 nM.

Consider `CNC[C@H]1C[C@@H]2c3ccccc3Cc3ccc(F)cc3[C@H]2N1C=O` [compound 38, (2R,3aR,12bS)-11-fluoro-2-[(methylamino)methyll]-3,3a,8,12b-tetrahydrodibenzo-[3,4:6,7]cyclohepta[1,2-b]pyrrole-1 (2H)-carbaldehyde], for which the IC50 in data set [1] was 490 nM; in data set [2] (setting [5]), 631 nM; in data set [3] it was 186 nM; in data set [4], 7080 nM.

In the case of `CN(C)C[C@H]1C[C@@H]2c3ccccc3Cc3ccc(F)cc3[C@H]2N1CCO` [compound 39, 2-((2R,3aR,12bS)-2-[(dimethylamino)methyl]-11-fluoro-3,3a,8,12b-tetrahydrodibenzo-[3,4:6,7]cyclohepta[1,2-b]pyrrol-1(2H)-yl)ethanol], the melting point is 88 to 90 °C. In data set [1], this compound gave an IC50 of 126 nM. The IC50 in data set [2] (setting [5]) was 87.1 nM. In addition, the IC50 in data set [3] was 46.8 nM. In addition, the IC50 in data set [4] was more than 1000 nM.

As to `COCCN1[C@@H](CN(C)C)C[C@@H]2c3ccccc3Cc3ccc(F)cc3[C@H]21` [compound 40, [(2R,3aR,12bS)-11-Fluoro-1-(2-methoxyethyl)-1,2,3,3a,8,12b-hexahydrodibenzo-[3,4:6,7]-cyclohepta[1,2-b]pyrrol-2-yl]-N,N-dimethylmethanamine], the IC50 in data set [1] was 479 nM; in data set [2] (setting [5]) it was 372 nM; in data set [3], 263 nM; in data set [4] it was more than 1000 nM.

Take `CNC[C@H]1CC[C@@H]2c3ccccc3Cc3ccc(F)cc3[C@H]2O1` [compound 46, [(2R,4aR,13bS)-12-fluoro-2,3,4,4a,9,13b-hexahydrodibenzo[3,4:6,7]cyclohepta-[1,2-b]pyran-2-yl]-N-methylmethanamine]: the IC50 is 398 nM in data set [1], 13.8 nM in data set [2] (setting [5]), 5.89 nM in data set [3] and 6310 nM in data set [4].
